Test results as given in US12343416B2, “Skin engaging member for razor cartridge comprising skin active ingredient” (BIC-VIOLEX S.A., priority 2019, dated 2025).

Tests used:
[1] = Retention of skin active ingredient after extrusion of the skin engaging member (process tolerance / thermal stability); type: physicochemical; conditions: initial concentration 1% in HIPS/PEG/BHT blend; heated to melt and extruded via rotating screw; 150° C. to 300° C., 250-2000 bar
Experimental: Therefore and more particularly, throughout the present description and claims, the expression “thermally tolerant” or “thermally stable” or “process tolerant” should thus be understood that the skin engaging member retains the contained skin active ingredient, after a thermal treatment/processing at about 150 to 300° C., from 2 to 15 minutes and pressure conditions between 250-2000 bar, in processes such as extrusion or injection or injection-molding, in concentration that is detected quantitatively at the end product/article, by applying analytical chemistry methods, such as liquid chromatography. In embodiments that the skin engaging member comprises skin active ingredient capable of treating and/or preventing skin redness or skin irritation and being selected from the group consisting of a) at least one terpenic acid derivative, b) strombine or salt of strombine, combined with a clay, and c) mixtures thereof, the concentration of the skin active ingredient retained after the thermal treatment/processing is about 0.001-100%, particularly 20-80%, more particularly 20-70%, of the initial quantity of skin active ingredient added. […]
The quantity of the skin active ingredient in the skin engaging member can be measured/evaluated by (chromatographic) methods known to the skilled person depending on the nature of the active ingredient. […]

[2] = type: physicochemical
Excerpt: Again, without being bound to theory, one could explain this thermostability by the low volatility related with high molecular weight. Indeed, Glycyrrhizic acid and its salts are widely used in food applications that are intended to be baked and keeping the sweetness.

Compound: C[C@H]1[C@H](C)CC[C@]2(C)CC[C@]3(C)C(=CC[C@@H]4[C@@]5(C)CC[C@@H](O)[C@](C)(C(=O)O)[C@@H]5CC[C@]43C)[C@H]12 [boswellic acid]
- reduction of the amount of skin active ingredient compared to the initial concentration, measured in the final skin engaging member [1]: 52.2%

Compound: Dipotassium Glycyrrhizinate/Glycyrrhizate
- heat stability/tolerance [2]: heat stable/tolerant
- reduction of the amount of skin active ingredient compared to the initial concentration, measured in the final skin engaging member [1]: 30%

Compound: CC1(C)[C@@H](O[C@H]2O[C@H](C(=O)O)[C@@H](O)[C@H](O)[C@H]2O[C@@H]2O[C@H](C(=O)O)[C@@H](O)[C@H](O)[C@H]2O)CC[C@]2(C)[C@H]3C(=O)C=C4[C@@H]5C[C@@](C)(C(=O)O)CC[C@]5(C)CC[C@@]4(C)[C@]3(C)CC[C@@H]12 [Glycyrrhizic acid, (3-beta, 20-beta)-20-carboxy-11-oxo-30-norolean-12-en-β-yl 2-O-beta-D-glucopyranuronosyl-alpha-D-glucopyranosiduronic]
- heat stability/tolerance [2]: heat stable/tolerant
